Experiments:
Format in all cases: biochemical
uPA = molecular target: T1, uPA (Homo sapiens, UniProt P00749); experiment: uPA chromogenic substrate assay (S2444)
T1 construct: uPA (high molecular weight uPA Calbiochem, Cat. 627081); purchased Calbiochem 627081
Procedure: (§1) Briefly, uPA (high molecular weight uPA Calbiochem, Cat. 627081), tpA (Quadratech, Cat. 821157) or plasmin (Quadratech, Cat. 810655) were diluted-in buffer comprising 0.5M tris HCl, 0.1% tween 20 pH 8.3. Urokinase activity was measured in a final volume of 100 μl containing 0.4 mM S2444 in assay buffer by following the increase in absorbance at 405 nm. The activity of tPA was measured in a final volume of 100 μl, containing 230 nM Spectrozyrne tPA substrate (American Diagnostica, Cat. 444L) and 40 μg per ml tPA stimulator (fibrin, Quadratech, Cat. 821116) and following the increase in absorbance at 405 nm. Plasmin activity was measured in a final volume of 100 μl containing 0.66 mM S2251, and following the increase in absorbance at 405 nm.

tPA = molecular target: T2, tPA (Homo sapiens, UniProt P00750); experiment: tPA chromogenic substrate assay (Spectrozyme tPA, fibrin stimulator)
T2 construct: purchased Quadratech 821157
T2 sequence (P00750 36-562): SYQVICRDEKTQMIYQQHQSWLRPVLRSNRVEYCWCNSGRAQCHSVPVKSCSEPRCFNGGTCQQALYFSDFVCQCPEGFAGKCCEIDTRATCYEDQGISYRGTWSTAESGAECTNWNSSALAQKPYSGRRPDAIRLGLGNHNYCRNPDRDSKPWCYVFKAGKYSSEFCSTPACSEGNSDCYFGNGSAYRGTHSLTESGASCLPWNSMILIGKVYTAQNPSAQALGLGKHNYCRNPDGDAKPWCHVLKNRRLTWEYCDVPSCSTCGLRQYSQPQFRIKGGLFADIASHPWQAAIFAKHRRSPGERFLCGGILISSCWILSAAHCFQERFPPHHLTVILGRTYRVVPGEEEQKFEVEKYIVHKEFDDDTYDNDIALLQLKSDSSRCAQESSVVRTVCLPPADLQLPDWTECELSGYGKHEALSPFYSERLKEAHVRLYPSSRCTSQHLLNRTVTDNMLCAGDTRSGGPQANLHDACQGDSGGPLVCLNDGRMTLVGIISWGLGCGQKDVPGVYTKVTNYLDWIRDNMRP
Procedure: as §1

Plasmin = molecular target: T3, Plasmin (Homo sapiens, UniProt P00747); experiment: Plasmin chromogenic substrate assay (S2251)
T3 construct: purchased Quadratech 810655
T3 sequence (P00747 97-580 partner limits assumed): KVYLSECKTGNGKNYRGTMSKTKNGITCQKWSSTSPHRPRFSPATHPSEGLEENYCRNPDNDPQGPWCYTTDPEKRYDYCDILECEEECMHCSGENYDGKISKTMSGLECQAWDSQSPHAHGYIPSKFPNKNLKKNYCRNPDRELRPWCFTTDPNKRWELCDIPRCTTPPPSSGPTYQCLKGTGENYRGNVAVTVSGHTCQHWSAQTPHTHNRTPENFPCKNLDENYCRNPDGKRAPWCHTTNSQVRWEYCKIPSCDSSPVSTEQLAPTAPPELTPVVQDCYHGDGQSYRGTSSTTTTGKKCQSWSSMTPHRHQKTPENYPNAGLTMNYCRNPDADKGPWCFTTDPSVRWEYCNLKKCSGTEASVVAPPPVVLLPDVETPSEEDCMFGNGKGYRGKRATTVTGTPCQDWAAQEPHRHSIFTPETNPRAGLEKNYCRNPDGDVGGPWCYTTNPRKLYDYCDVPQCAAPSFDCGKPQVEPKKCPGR
T3 sequence (P00747 581-810 limits assumed): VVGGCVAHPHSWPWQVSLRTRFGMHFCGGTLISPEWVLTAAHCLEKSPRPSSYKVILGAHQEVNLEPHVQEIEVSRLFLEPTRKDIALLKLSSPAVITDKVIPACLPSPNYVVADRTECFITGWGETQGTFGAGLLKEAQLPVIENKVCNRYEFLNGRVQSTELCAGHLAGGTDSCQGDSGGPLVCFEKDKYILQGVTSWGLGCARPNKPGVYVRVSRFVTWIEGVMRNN
Procedure: as §1

CC(C)[C@H](NC(=O)c1ccc(C(=O)NS(=O)(=O)c2ccc(Br)cc2)cc1)C(=O)N1CCC[C@H]1C(=O)N[C@H](C(=O)C(F)(F)F)C(C)C [elastase inhibitor, 3S-[4-[(4-bromophenyl)sulfonylaminocarbonyl]phenylcarbonyl]-L-valyl-N-[3-(1,1,1-trifluoro-4-methyl-2-oxopentyl)]-L-prolinamide]
% inhibition (uPA; 100 μM elastase inhibitor, uPA (5 nM), 0.4 mM S2444, absorbance at 405 nm): 2%
inhibition of uPA activity (in words) (uPA; chromogenic substrate assay): did not significantly inhibit
% inhibition (tPA; 100 μM elastase inhibitor, tPA (30 nM), Spectrozyme tPA substrate, 40 μg per ml tPA stimulator, absorbance at 405 nm): 9%
inhibition of tPA activity (in words) (tPA; chromogenic substrate assay): did not significantly inhibit
% inhibition (Plasmin; 100 μM elastase inhibitor, Plasmin (2.5 μg ml-1), 0.66 mM S2251, absorbance at 405 nm): 2%
inhibition of plasmin activity (in words) (Plasmin; chromogenic substrate assay): did not significantly inhibit
